Assay results reported in patent US20240343704A1, “HALO-SUBSTITUTED AMINO PYRIDINE COMPOUNDS AS INHIBITORS OF THE HAEMATOPOIETIC PROGENITOR KINASE 1 (HPK1)” (priority 2021, published 2024).

How the values were obtained:
[1] = molecular target: T1, Recombinant (1-346) HPK1 (h) (Homo sapiens, UniProt Q92918); test: HPK1 Human STE Kinase Enzymatic Radiometric Assay; type: biochemical; conditions: read-out: HPK1 IC50 nM Range*
T1 construct: Recombinant (1-346) HPK1 (h) is incubated with 8 mM MOPS pH 7.0
T1 sequence (Q92918 1-346): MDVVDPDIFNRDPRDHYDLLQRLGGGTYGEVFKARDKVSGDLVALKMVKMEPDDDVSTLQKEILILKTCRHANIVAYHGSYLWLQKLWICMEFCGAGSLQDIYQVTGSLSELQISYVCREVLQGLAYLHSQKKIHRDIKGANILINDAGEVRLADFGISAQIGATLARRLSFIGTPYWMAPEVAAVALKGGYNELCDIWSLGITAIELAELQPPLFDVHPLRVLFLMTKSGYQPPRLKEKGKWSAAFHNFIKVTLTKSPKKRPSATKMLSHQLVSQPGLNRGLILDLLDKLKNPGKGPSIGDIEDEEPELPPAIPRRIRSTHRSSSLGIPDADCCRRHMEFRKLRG
Protocol: A stock solution of 10 mM of test compound is prepared in DMSO. The compound plate was prepared by 3-fold and 9-point serial dilutions. […] The reaction is initiated by The addition of the Mg/ATP mix. After incubation for 40 minutes at RT, the reaction is stopped by the addition of phosphoric acid to a concentration of 0.5%.

Lck (h) = Lck (h) (Homo sapiens, UniProt P06239); test: Lck Human  Kinase Enzymatic Radiometric Assay; type: biochemical; conditions: read-out: Lck IC50 nM Range*
Sequence of Lck (h) (P06239 whole entry): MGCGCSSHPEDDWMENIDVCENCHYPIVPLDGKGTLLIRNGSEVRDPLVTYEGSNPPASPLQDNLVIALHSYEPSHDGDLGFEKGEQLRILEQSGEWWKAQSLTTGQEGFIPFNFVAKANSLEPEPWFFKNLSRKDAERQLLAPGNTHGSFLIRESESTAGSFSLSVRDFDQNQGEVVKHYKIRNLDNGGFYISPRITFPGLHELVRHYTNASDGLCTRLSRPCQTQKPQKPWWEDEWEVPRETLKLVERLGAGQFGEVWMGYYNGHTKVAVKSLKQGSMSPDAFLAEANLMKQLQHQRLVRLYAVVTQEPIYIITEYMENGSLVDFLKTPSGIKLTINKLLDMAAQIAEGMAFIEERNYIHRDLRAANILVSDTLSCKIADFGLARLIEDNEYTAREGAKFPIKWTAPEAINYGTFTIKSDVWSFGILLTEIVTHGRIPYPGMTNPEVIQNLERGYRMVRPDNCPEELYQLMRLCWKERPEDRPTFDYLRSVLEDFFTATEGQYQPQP
How it was run: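 Substrate 33P-incorporation measured by scintillation counting after spotting on P30 filtermat and phosphoric acid washes. Human Lck reacted 40 min at RT in 50 mM Tris pH 7.5 with 10 mM MgAcetate, [gamma-33P]-ATP, 250 uM Cdc2 peptide, 0.1 mM EGTA and 0.1 mM Na3VO4.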

Row | Structure (SMILES) | IC50 [1] | IC50 (Lck (h))
1 | CC(C)N1CCN(c2ccc(-c3cc(-c4cc5nc[nH]c(=O)c5cc4F)c(N)nc3F)cc2)CC1 [I-406, 7-(2-amino-6-fluoro-5-(4-(4-isopropylpiperazin-1-yl)phenyl)pyridin-3-yl)-6-fluoroquinazolin-4(3H)-one] | 0.1 to 10 nM | > 1000 nM
2 | Nc1nc(F)c(-c2ccc(N3CCN(CC4CC4)CC3)cc2)cc1-c1cc(F)c2c(=O)[nH]cnc2c1 [I-407, 7-(2-amino-5-(4-(4-(cyclopropylmethyl)piper-azin-1-yl)phenyl)-6-fluoropyridin-3-yl)-5-fluoroquinazolin-4(3H)-one] | 0.1 to 10 nM | > 1000 nM
3 | Nc1nc(F)c(-c2ccc(N3CCN(CC4CC4)CC3)cc2)cc1-c1cc2nc[nH]c(=O)c2cc1F [I-408, 7-(2-amino-5-(4-(4-(cyclopropylmethyl)piper-azin-1-yl)phenyl)-6-fluoropyridin-3-yl)-6-fluoroquinazolin-4(3H)-one] | 0.1 to 10 nM | > 1000 nM
4 | Cc1nc2cc(-c3cc(-c4ccc(N5CCN(C(C)C)CC5)cc4)c(F)nc3N)ccc2c(=O)[nH]1 [I-409, 7-(2-amino-6-fluoro-5-(4-(4-isopropylpiperazin-1-yl)phenyl)pyridin-3-yl)-2-methylquinazolin-4(3H)-one] | 0.1 to 10 nM | > 1000 nM
5 | CNCc1nc2cc(-c3cc(-c4ccc(N5CCN(C(C)C)CC5)cc4)c(F)nc3N)ccc2c(=O)[nH]1 [I-410, 7-(2-amino-6-fluoro-5-(4-(4-isopropylpiperazin-1-yl)phenyl)pyridin-3-yl)-2-((methylamino)methyl)quin-azolin-4(3H)-one] | 11 to 100 nM | > 1000 nM
6 | Cc1nc2cc(-c3cc(-c4ccc(N5CCN(CC6CC6)CC5)cc4)c(F)nc3N)ccc2c(=O)[nH]1 [I-411, 7-(2-amino-5-(4-(4-(cyclopropylmethyl)piper-azin-1-yl)phenyl)-6-fluoropyridin-3-yl)-2-methylquinazolin-4(3H)-one] | 11 to 100 nM | > 1000 nM
7 | Cc1nc2cc(-c3cc(-c4ccc(N5CCN(C(C)C)CC5)cc4)c(F)nc3N)cc(F)c2c(=O)[nH]1 [I-414, 7-(2-amino-6-fluoro-5-(4-(4-isopropylpiperazin-1-yl)phenyl)pyridin-3-yl)-5-fluoro-2-methylquinazolin-4(3H)-one] | 0.1 to 10 nM | > 1000 nM
8 | Cc1nc2cc(-c3cc(-c4ccc(N5CCN(CC6CC6)CC5)cc4)c(F)nc3N)cc(F)c2c(=O)[nH]1 [I-416, 7-(2-amino-5-(4-(4-(cyclopropylmethyl)piper-azin-1-yl)phenyl)-6-fluoropyridin-3-yl)-5-fluoro-2-methylquinazolin-4(3H)-one] | 0.1 to 10 nM | > 1000 nM
9 | Cc1nc2cc(-c3cc(-c4ccc(N5CCN(CCC6CC6)CC5)cc4)c(F)nc3N)cc(F)c2c(=O)[nH]1 [I-417, 7-(2-amino-5-(4-(4-(2-cyclopropylethyl)piperazin-1-yl)phenyl)-6-fluoropyridin-3-yl)-5-fluoro-2-methylquinazolin-4(3H)-one] | 0.1 to 10 nM | > 1000 nM
10 | Cc1c[nH]c(=O)c2ccc(-c3cc(-c4ccc(C5CCOCC5)c(CN(C)C)c4)c(F)nc3N)cc12 [I-426, 6-(2-amino-5-(3-((dimethylamino)methyl)-4-(tetrahydro-2H-pyran-4-yl)phenyl)-6-fluoropyridin-3-yl)-4-methylisoquinolin-1(2H)-one] | 0.1 to 10 nM | > 1000 nM
11 | CN(C)Cc1nc(-c2cc(-c3cc4c(cc3F)C(=O)NCC4)c(N)nc2F)ccc1N1CCOCC1 [I-427, 6-(6′-amino-6-((dimethylamino)methyl)-2′-fluoro-5-morpholino-[2,3-bipyridin]-5′-yl)-7-fluoro-3,4-dihydroisaoquinolin-1(2H)-one] | 0.1 to 10 nM | > 1000 nM
12 | CN(C)Cc1cc(-c2cc(-c3cc4c(cc3F)C(=O)NCC4)c(N)nc2F)ccc1C1CCOCC1 [I-429, 6-(2-amino-5-(3-((dimethylamino)methyl)-4-(tetrahydro-2H-pyran-4-yl)phenyl)-6-fluoropyridin-3-yl)-7-fluoro-3,4-dihydroisoquinolin-1(2H)-one] | 0.1 to 10 nM | > 1000 nM
13 | Cc1cc(-c2cc(-c3ccc4c(c3)CCNC4=O)c(N)nc2F)cc2c1CCNC2 [I-431, 6-(2-amino-6-fluoro-5-(5-methyl-1,2,3,4-tetrahydroisoquinolin-7-yl)pyridin-3-yl)-3,4-dihydroisoquinolin-1(2H)-one] | 0.1 to 10 nM | > 1000 nM

Now from value to compound:

Row | IC50 [1] | IC50 (Lck (h)) | Structure (SMILES)
14 | 0.1 to 10 nM | 101 to 1000 nM | C[C@H](C1CC1)N1CCN(c2ccc(-c3cc(-c4cc(F)c5c(=O)[nH]ccc5c4)c(N)nc3F)cc2)CC1 [I-391, (R)-6-(2-amino-5-(4-(4-(1-cyclopropylethyl)piperazin-1-yl)phenyl)-6-fluoropyridin-3-yl)-8-fluoroisoquinolin-1(2H)-one]
15 | 0.1 to 10 nM | 101 to 1000 nM | C[C@@H](C1CC1)N1CCN(c2ccc(-c3cc(-c4cc(F)c5c(=O)[nH]ccc5c4)c(N)nc3F)cc2)CC1 [I-393, (S)-6-(2-amino-5-(4-(4-(1-cyclopropylethyl)piperazin-1-yl)phenyl)-6-fluoropyridin-3-yl)-8-fluoroisoquinolin-1(2H)-one]
16 | 0.1 to 10 nM | 101 to 1000 nM | CCN1CCN(c2ccc(-c3cc(-c4cc(F)c5c(=O)[nH]ccc5c4)c(N)nc3F)cc2)CC1 [I-394, 6-(2-amino-5-(4-(4-ethylpiperazin-1-yl)phenyl)-6-fluoropyridin-3-yl)-8-fluoroisoquinolin-1(2H)-one]
17 | 0.1 to 10 nM | > 1000 nM | Nc1nc(F)c(-c2ccc(N3CCOCC3)cc2)cc1-c1cc(F)c2c(=O)[nH]ccc2c1 [I-396, 6-(2-amino-6-fluoro-5-(4-morpholinophenyl)pyridin-3-yl)-8-fluoroisoquinolin-1(2H)-one]
18 | 0.1 to 10 nM | 101 to 1000 nM | CC(C)N1CCN(c2ccc(-c3cc(-c4cc5c(cn4)C(=O)NCC5)c(N)nc3F)cc2)CC1 [I-398, 6-(2-amino-6-fluoro-5-(4-(4-isopropylpiperazin-1-yl)phenyl)pyridin-3-yl)-3,4-dihydro-2,7-naphthyridin-1(2H)-one]
19 | 0.1 to 10 nM | 101 to 1000 nM | Nc1nc(F)c(-c2ccc(N3CCN(CC4CC4)CC3)cc2)cc1-c1cc2c(cn1)C(=O)NCC2 [I-400, 6-(2-amino-5-(4-(4-(cyclopropylmethyl)piper-azin-1-yl)phenyl)-6-fluoropyridin-3-yl)-3,4-dihydro-2,7-naphthyridin-1(2H)-one]
20 | 0.1 to 10 nM | > 1000 nM | CC(C)N1CCN(c2ccc(-c3cc(-c4cc5cc[nH]c(=O)c5cn4)c(N)nc3F)cc2)CC1 [I-401, 6-(2-amino-6-fluoro-5-(4-(4-isopropylpiperazin-1-yl)phenyl)pyridin-3-yl)-2,7-naphthyridin-1(2H)-one]
21 | 0.1 to 10 nM | > 1000 nM | CC(C)N1CCN(c2ccc(-c3cc(-c4cnc5c(=O)[nH]ccc5c4)c(N)nc3F)cc2)CC1 [I-402, 3-(2-amino-6-fluoro-5-(4-(4-isopropylpiperazin-1-yl)phenyl)pyridin-3-yl)-1,7-naphthyridin-8(7H)-one]
22 | 0.1 to 10 nM | > 1000 nM | CC(C)N1CCN(c2ccc(-c3cc(-c4cc(F)c5c(=O)[nH]cnc5c4)c(N)nc3F)cc2)CC1 [I-405, 7-(2-amino-6-fluoro-5-(4-(4-isopropylpiperazin-1-y)phenyl)pyridin-3-yl)-5-fluoroquinazolin-4(3H)-one]
